Earlier results on two compounds are cited in US6620802B1, “Methods of treating mild cognitive impairment using a glucocorticoid-specific receptor antagonist” (Corcept Therapeutics, Inc., priority 1999, dated 2003).

Molecules are shown by their SMILES.

The target of one series is T1, progesterone receptor (Homo sapiens, UniProt P06401).
T1 sequence (P06401 1-933): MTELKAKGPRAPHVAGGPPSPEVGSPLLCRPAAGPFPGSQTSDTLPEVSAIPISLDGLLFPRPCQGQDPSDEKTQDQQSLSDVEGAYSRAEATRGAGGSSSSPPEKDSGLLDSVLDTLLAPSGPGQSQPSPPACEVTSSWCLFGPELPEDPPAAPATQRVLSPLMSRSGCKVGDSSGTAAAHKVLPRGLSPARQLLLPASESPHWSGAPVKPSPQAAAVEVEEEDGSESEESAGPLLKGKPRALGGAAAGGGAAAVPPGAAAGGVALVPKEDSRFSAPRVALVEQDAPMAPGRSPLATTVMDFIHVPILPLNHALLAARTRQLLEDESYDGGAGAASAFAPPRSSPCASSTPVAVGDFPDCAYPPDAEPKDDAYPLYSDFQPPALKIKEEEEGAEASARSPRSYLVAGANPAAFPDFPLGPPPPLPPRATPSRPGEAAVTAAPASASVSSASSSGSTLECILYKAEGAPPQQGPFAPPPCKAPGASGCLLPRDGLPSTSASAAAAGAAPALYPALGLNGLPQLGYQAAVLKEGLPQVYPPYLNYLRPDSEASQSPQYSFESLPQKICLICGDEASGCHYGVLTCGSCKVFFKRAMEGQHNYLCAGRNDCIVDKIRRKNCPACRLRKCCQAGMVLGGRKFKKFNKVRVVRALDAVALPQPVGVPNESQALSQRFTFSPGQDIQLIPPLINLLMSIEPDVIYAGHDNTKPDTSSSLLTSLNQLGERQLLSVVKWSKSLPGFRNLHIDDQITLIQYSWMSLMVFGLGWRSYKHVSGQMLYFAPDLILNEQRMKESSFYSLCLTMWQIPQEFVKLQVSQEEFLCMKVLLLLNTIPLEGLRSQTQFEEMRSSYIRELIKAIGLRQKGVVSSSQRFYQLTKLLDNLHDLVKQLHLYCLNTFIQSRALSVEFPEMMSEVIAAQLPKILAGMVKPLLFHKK
As to conditions: literature statement.

For series [1] the following is noted: one study, Kawai (1989) supra.
For series [2], the system named is mouse hippocampus neuronal cells. The conditions noted are these: Behl et al. 1997.
Another series relates to rat hippocampus. As to conditions: Talmi et al. 1996.
The target in series [3] is T2, glucocorticoid (GR) receptor (Homo sapiens, UniProt P04150).
T2 sequence (P04150 1-777): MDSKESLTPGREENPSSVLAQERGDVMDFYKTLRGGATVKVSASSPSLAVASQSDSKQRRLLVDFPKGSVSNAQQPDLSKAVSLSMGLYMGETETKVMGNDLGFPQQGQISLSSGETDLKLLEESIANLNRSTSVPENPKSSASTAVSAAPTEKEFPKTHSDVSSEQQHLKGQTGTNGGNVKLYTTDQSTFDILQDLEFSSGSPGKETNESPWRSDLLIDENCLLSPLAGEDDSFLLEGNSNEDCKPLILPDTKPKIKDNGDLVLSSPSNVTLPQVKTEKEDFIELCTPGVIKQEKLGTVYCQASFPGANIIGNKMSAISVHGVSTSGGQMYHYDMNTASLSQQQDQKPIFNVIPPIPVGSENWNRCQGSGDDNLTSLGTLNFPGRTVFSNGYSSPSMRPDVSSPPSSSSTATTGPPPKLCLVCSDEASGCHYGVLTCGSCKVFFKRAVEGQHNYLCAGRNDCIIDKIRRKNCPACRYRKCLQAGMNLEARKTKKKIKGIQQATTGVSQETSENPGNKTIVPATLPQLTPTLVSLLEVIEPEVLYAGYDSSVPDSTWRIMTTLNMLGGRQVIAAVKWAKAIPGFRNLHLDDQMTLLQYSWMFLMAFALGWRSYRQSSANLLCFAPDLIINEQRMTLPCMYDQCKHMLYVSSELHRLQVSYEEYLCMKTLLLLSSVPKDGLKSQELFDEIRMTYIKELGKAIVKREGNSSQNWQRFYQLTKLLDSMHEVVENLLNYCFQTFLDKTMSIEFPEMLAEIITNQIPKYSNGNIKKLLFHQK
The conditions noted are these: literature statement.

Take `CC#C[C@]1(O)CC[C@H]2[C@@H]3CCC4=CC(=O)CCC4=C3[C@@H](c3ccc(N(C)C)cc3)C[C@@]21C` [Mifepristone, 17-beta-hydroxy-11-beta-(4-dimethyl-aminophenyl)-17-alpha(1-propynyl)-estra-4,9-dien-3-one]: on progesterone receptor, the “progesterone receptor antagonist activity” value is “powerful antagonist”. The “share of the daily dose excreted in the urine” value in series [1] is on record as “less than 0.5%”. For the same compound, the “protection against oxidative stress-induced neuronal cell death” value in series [2] is on record as “providing protection against oxidative stress-induced neuronal cell death”. Moreover, the “effect on age-associated electrophysiological changes” value in the series with rat hippocampus is reported as “effective at abrogating some of the age-associated electrophysiological changes”. For the same compound, in series [3], the GR antagonist activity result was “powerful antagonist”.

As to `CC#C[C@]1(O)CC[C@H]2[C@@H]3CCC4=CC(=O)CCC4=C3[C@@H](c3ccc(OCCN(C)C)cc3)C[C@@]21C` [RU009, 11-beta-(4-dimethyl-aminoethoxyphenyl)-17-alpha-(propynyl-17-beta-hydroxy-4,9-estradien-3-one)], the GR antagonist activity result in series [3] was “shown to have GR antagonist effects”.
